In PubChem BioAssay AID1963865 (Molecular Pharmacology Branch, DTP, NCI, 2024):

System: KRAS PDC multicell spheroid viability
Assay: Anticancer human tumor 825966-067-R-J1-PDC patient-derived colon carcinoma cell line growth inhibition [KRAS2]
Details: for IC50: curve of first compound; for viability, T/C: stronger effect = lower value
Description: Multicellular complex tumor spheroid response to RAS pathway inhibitors in combination with a targeted agents in patient-derived cell lines with oncogenic KRAS variants from multiple cancer types
A high-throughput screen of multi-cell type tumor spheroids was designed to identify active combinations of targeted small molecules and KRAS pathway inhibitors. Complex spheroids include a stromal component modeled by human endothelial cells (HUVEC) and fibroblasts modeled by human mesenchymal stem cells (MSCs). The concentration ranges selected for each drug and investigational agent were based upon clinically achievable concentrations if the clinical Cmax of the agent was known.
Compounds. The drugs and investigational agents: BI-3406 (NSC825286), BAY-293 (NSC824723), batoprotafib (TNO155; NSC825523), sotorasib (AMG 510; NSC818433), MRTX1257 (NSC819558), elimusertib (BAY 1895344; NSC800525), molibresib (GSK525762; NSC774829), temuterkib (LY3214996; NSC803410), venetoclax (NSC766270), alisertib (NSC759677), olaparib (NSC753686), talazoparib (NSC767125), erdafitinib (NSC781556), ipatasertib (NSC767898), cabozantinib (NSC761068), nintedanib (NSC756659), abemaciclib (NSC768073), docetaxel (NSC628503), trametinib (NSC758246), and sapanisertib (NSC764658) were obtained from the National Cancer Institute (NCI) Developmental Therapeutics Program Chemical Repository. The FDA-approved anticancer drug set is available from the Developmental Therapeutics Program. […] The stock solutions were prepared in dimethyl sulfoxide (DMSO, Sigma-Aldrich, St. Louis, MO, cat. D2650) at 800-fold the tested concentration and stored at -70 degrees C prior to their use. All drugs and investigational agents were tested over a range starting from a high concentration at or near the clinical Cmax and decreasing in half-log increments. If the clinical Cmax for an agent had not been determined, the highest concentration tested was 10 microM.
Cell Culture. All cells were maintained in an incubator at 37 degrees C and 5% CO2 with 95% humidity. The PDC lines were cultured according to standard operating procedures established by the NCI PDMR (https://pdmr.cancer.gov/sops/default.htm). Briefly, all PDCs were thawed and cultured in Matrigel-coated flasks prepared with a working solution of 1X Ham's F-12 nutrient mix, without supplementation (Invitrogen, Waltham, MA, cat. 11765054), 100 U/mL penicillin-streptomycin (Invitrogen, cat. 15140122), and 2.5% Matrigel (Corning Inc., Corning, NY, cat. 354248) for the first three passages. All PDCs were cultured in complete DMEM/F-12 media containing advanced DMEM/F-12 (Invitrogen, cat. 12634028), 4.9% defined fetal bovine serum, heat inactivated (HyClone Laboratories Inc., Logan, UT, cat. SH30070.03HI), 389 ng/mL hydrocortisone (Sigma-Aldrich, cat. H4001), 9.7 ng/mL human EGF recombinant protein (Invitrogen, cat. PHG0313), 23.4 microg/mL adenine (Sigma-Aldrich, cat. A2786), 97.3 U/mL penicillin-streptomycin (Invitrogen, cat. 15140122), 1.9 mM L-glutamine (Invitrogen, cat. 25030081), and 9.7 microM Y-27632 dihydrochloride (Tocris Bioscience, Bristol, United Kingdom, cat. 1254). The PDCs were cultured in complete DMEM/F12 media without 9.7 microM Y-27632 dihydrochloride for at least two passages prior to the screen. The established cell line HOP-62 was cultured in RPMI 1640 medium, HEPES (Invitrogen, cat. 22400105) with 10% defined fetal bovine serum (HyClone Laboratories Inc., cat. SH30070.03) and 2 mM L-glutamine (Invitrogen, cat. 25030081). The pooled donor HUVEC were cultured in endothelial cell growth medium 2 (PromoCell, Heidelberg, Germany, cat. C-22011) and the hMSC were cultured in mesenchymal stem cell growth medium 2 (PromoCell, cat. C-28009). For all experiments, HUVEC and hMSC were used at passages </=5, while the malignant cell lines were used at passages </=15. […]

[1] = second compound 0.1 µM, first compound 0.0316 µM
[2] = second compound 0.1 µM, first compound 0.1 µM
[3] = second compound 0.1 µM, first compound 0.316 µM
[4] = second compound 0.1 µM, first compound 1 µM
[5] = second compound 0.1 µM, first compound 3.16 µM
[6] = second compound 0.1 µM, first compound 10 µM
[7] = second compound 0.316 µM, first compound 0.0316 µM
[8] = second compound 0.316 µM, first compound 0.1 µM
[9] = second compound 0.316 µM, first compound 0.316 µM
[10] = second compound 0.316 µM, first compound 1 µM
[11] = second compound 0.316 µM, first compound 3.16 µM
[12] = second compound 0.316 µM, first compound 10 µM
[13] = second compound 1 µM, first compound 0.0316 µM
[14] = second compound 1 µM, first compound 0.1 µM
[15] = second compound 1 µM, first compound 0.316 µM
[16] = second compound 1 µM, first compound 1 µM
[17] = second compound 1 µM, first compound 3.16 µM
[18] = second compound 1 µM, first compound 10 µM
[19] = second compound 3.16 µM, first compound 0.0316 µM
[20] = second compound 3.16 µM, first compound 0.1 µM
[21] = second compound 3.16 µM, first compound 0.316 µM
[22] = second compound 3.16 µM, first compound 1 µM
[23] = second compound 3.16 µM, first compound 3.16 µM
[24] = second compound 3.16 µM, first compound 10 µM
[25] = second compound 10 µM, first compound 0.0316 µM
[26] = second compound 10 µM, first compound 0.1 µM
[27] = second compound 10 µM, first compound 0.316 µM
[28] = second compound 10 µM, first compound 1 µM
[29] = second compound 10 µM, first compound 3.16 µM
[30] = second compound 10 µM, first compound 10 µM
[31] = second compound 0.1 µM, first compound 0.00316 µM
[32] = second compound 0.1 µM, first compound 0.01 µM
[33] = second compound 0.316 µM, first compound 0.00316 µM
[34] = second compound 0.316 µM, first compound 0.01 µM
[35] = second compound 1 µM, first compound 0.00316 µM
[36] = second compound 1 µM, first compound 0.01 µM
[37] = second compound 3.16 µM, first compound 0.00316 µM
[38] = second compound 3.16 µM, first compound 0.01 µM
[39] = second compound 10 µM, first compound 0.00316 µM
[40] = second compound 10 µM, first compound 0.01 µM
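Also: spheroids exposed to compounds for 7 days.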
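For viability, T/C in this document: 100% = DMSO vehicle control viability.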

Compound	IC50 (second compound 0.1 µM)	IC50 (second compound 0.316 µM)	IC50 (second compound 1 µM)	IC50 (second compound 3.16 µM)	IC50 (second compound 10 µM)	viability, T/C [1]	viability, T/C [2]	viability, T/C [3]	viability, T/C [4]	viability, T/C [7]	viability, T/C [8]	viability, T/C [9]	viability, T/C [10]	viability, T/C [13]	viability, T/C [14]	viability, T/C [15]	viability, T/C [19]	viability, T/C [20]	viability, T/C [25]	viability, T/C [26]	other results
CC(C)NCC(C(=O)N1CCN(c2ncnc3c2C(C)CC3O)CC1)c1ccc(Cl)cc1 (stereo not given) + C=CC(=O)N1CCN(c2nc(=O)n(-c3c(C)ccnc3C(C)C)c3nc(-c4c(O)cccc4F)c(F)cc23)C(C)C1	2.27 µM	1.64 µM	1.47 µM	1.6 µM	0.235 µM	105%	139%	155%	93.6%	104%	127%	136%	73.7%	88.7%	121%	120%	97.2%	130%	76.2%	150%	viability, T/C [5]: 35.2%; viability, T/C [6]: 10.4%; viability, T/C [11]: 26.6%; viability, T/C [12]: 10.6%; viability, T/C [16]: 69%; viability, T/C [17]: 16.9%; viability, T/C [18]: 6.64%; viability, T/C [21]: 110%; viability, T/C [22]: 68.5%; viability, T/C [23]: 23.6%; viability, T/C [24]: 9.85%; viability, T/C [27]: 27.9%; viability, T/C [28]: 14.5%; viability, T/C [29]: 6.65%; viability, T/C [30]: 2.19%
CC1(C)CCC(CN2CCN(c3ccc(C(=O)NS(=O)(=O)c4ccc(NCC5CCOCC5)c([N+](=O)[O-])c4)c(Oc4cnc5[nH]ccc5c4)c3)CC2)=C(c2ccc(Cl)cc2)C1 + C=CC(=O)N1CCN(c2nc(=O)n(-c3c(C)ccnc3C(C)C)c3nc(-c4c(O)cccc4F)c(F)cc23)C(C)C1	2.02 µM	2.19 µM	2.07 µM	1.77 µM	1.9 µM	90.5%	99.3%	115%	95.9%	93.6%	86.6%	103%	94.7%	102%	108%	81.2%	76.4%	103%	89.7%	98.1%	viability, T/C [5]: 20.8%; viability, T/C [6]: 6.39%; viability, T/C [11]: 29.2%; viability, T/C [12]: 5.85%; viability, T/C [16]: 104%; viability, T/C [17]: 21.3%; viability, T/C [18]: 1.24%; viability, T/C [21]: 102%; viability, T/C [22]: 81.1%; viability, T/C [23]: 18.2%; viability, T/C [24]: 2.96%; viability, T/C [27]: 107%; viability, T/C [28]: 110%; viability, T/C [29]: 9.64%; viability, T/C [30]: 1.37%
CCN1CCN(Cc2ccc(Nc3ncc(F)c(-c4cc(F)c5nc(C)n(C(C)C)c5c4)n3)nc2)CC1 + C=CC(=O)N1CCN(c2nc(=O)n(-c3c(C)ccnc3C(C)C)c3nc(-c4c(O)cccc4F)c(F)cc23)C(C)C1	> 1 µM	> 1 µM	> 1 µM	> 1 µM	0.743 µM	101%	96.3%	143%	119%	112%	118%	153%	111%	102%	114%	163%	126%	121%	100%	143%	viability, T/C [31]: 90%; viability, T/C [32]: 107%; viability, T/C [33]: 80.8%; viability, T/C [34]: 85.9%; viability, T/C [35]: 87.3%; viability, T/C [36]: 84.8%; viability, T/C [16]: 83%; viability, T/C [37]: 89.5%; viability, T/C [38]: 92.4%; viability, T/C [21]: 155%; viability, T/C [22]: 76.8%; viability, T/C [39]: 104%; viability, T/C [40]: 102%; viability, T/C [27]: 117%; viability, T/C [28]: 27.9%
Cn1ncnc1[C@H]1c2n[nH]c(=O)c3cc(F)cc(c23)N[C@@H]1c1ccc(F)cc1 + C=CC(=O)N1CCN(c2nc(=O)n(-c3c(C)ccnc3C(C)C)c3nc(-c4c(O)cccc4F)c(F)cc23)C(C)C1	> 0.1 µM	> 0.1 µM	> 0.1 µM	> 0.1 µM	> 0.1 µM	90.1%	82.3%			90.7%	72.3%			102%	80.6%		72%	87.7%	115%	76.9%	viability, T/C (second compound 0.1 µM, first compound 0.000316 µM): 132%; viability, T/C (second compound 0.1 µM, first compound 0.001 µM): 100%; viability, T/C [31]: 98.2%; viability, T/C [32]: 89.6%; viability, T/C (second compound 0.316 µM, first compound 0.000316 µM): 100%; viability, T/C (second compound 0.316 µM, first compound 0.001 µM): 99.9%; viability, T/C [33]: 143%; viability, T/C [34]: 103%; viability, T/C (second compound 1 µM, first compound 0.000316 µM): 100%; viability, T/C (second compound 1 µM, first compound 0.001 µM): 91.7%; viability, T/C [35]: 75.2%; viability, T/C [36]: 79.3%; viability, T/C (second compound 3.16 µM, first compound 0.000316 µM): 109%; viability, T/C (second compound 3.16 µM, first compound 0.001 µM): 102%; viability, T/C [37]: 101%; viability, T/C [38]: 98.3%; viability, T/C (second compound 10 µM, first compound 0.000316 µM): 92.4%; viability, T/C (second compound 10 µM, first compound 0.001 µM): 124%; viability, T/C [39]: 93.2%; viability, T/C [40]: 111%
